# Molecular target: T1, GST-tagged-Wee1 kinase (Homo sapiens, UniProt P30291)
# T1 construct: purchased Carnabio (Carna Biosciences) 05-177
# Test: Wee1 time-resolved fluorescence equilibrium binding assay (displacement of Oregon Green-labeled ATP-competitive kinase probe)
# Conditions: read-out: Wee-1 inhibition (Ki)
# In short: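 Ki values derive from competitive displacement, under equilibrium, of a fast-reversible ATP-site Oregon Green kinase probe from GST-tagged Wee1, detected by time-resolved fluorescence.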
# T1 sequence (P30291 whole entry): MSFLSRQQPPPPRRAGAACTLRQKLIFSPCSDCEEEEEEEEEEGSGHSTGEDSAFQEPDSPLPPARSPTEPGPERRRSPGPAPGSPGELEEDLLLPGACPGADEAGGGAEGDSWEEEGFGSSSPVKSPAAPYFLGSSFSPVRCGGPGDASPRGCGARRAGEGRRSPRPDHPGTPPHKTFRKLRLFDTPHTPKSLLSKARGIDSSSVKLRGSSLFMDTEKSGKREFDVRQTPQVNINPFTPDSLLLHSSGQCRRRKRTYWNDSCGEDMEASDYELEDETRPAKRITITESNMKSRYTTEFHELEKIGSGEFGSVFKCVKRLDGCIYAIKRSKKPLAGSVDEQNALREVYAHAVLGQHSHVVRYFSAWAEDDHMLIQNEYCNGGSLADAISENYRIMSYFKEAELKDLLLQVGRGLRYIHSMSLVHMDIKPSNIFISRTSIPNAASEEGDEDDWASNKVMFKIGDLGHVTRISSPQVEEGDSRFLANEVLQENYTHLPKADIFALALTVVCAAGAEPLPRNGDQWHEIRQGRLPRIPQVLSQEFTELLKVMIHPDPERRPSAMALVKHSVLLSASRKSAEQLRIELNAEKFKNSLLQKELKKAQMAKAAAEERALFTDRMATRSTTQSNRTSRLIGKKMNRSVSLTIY
row,Ki [µM],Compound
1,< 0.01,"O=c1c2cnc(Nc3ccc(NC4CCNCC4)cc3)nc2n2ccnc2n1-c1c(Cl)cccc1Cl [Example 308, 6-(2,6-dichlorophenyl)-2-{[4-(piperidin-4-ylamino)phenyl]amino}imidazo[1,2-a]pyrimido[5,4-e]pyrimidin-5(6H)-one]"
2,< 0.01,"CN1CCC(c2ccc(Nc3ncc4c(=O)n(-c5c(F)cccc5Cl)c5nccn5c4n3)cc2)CC1 [Example 309, 6-(2-chloro-6-fluorophenyl)-2-{[4-(1-methylpiperidin-4-yl)phenyl]amino}imidazo[1,2-a]pyrimido[5,4-e]pyrimidin-5(6H)-one]"
3,< 0.01,"CC(=O)N1Cc2cc(Nc3ncc4c(=O)n(-c5c(F)cccc5Cl)c5nccn5c4n3)ccc2C(C)(C)C1 [Example 310, 2-[(2-acetyl-4,4-dimethyl-1,2,3,4-tetrahydroisoquinolin-7-yl)amino]-6-(2-chloro-6-fluorophenyl)imidazo[1,2-a]pyrimido[5,4-e]pyrimidin-5(6H)-one]"
4,< 0.01,"CC1(C)CN(C(=O)C2CC2)Cc2cc(Nc3ncc4c(=O)n(-c5c(F)cccc5Cl)c5nccn5c4n3)ccc21 [Example 311, 6-(2-chloro-6-fluorophenyl)-2-{[2-(cyclopropylcarbonyl)-4,4-dimethyl-1,2,3,4-tetrahydroisoquinolin-7-yl]amino}imidazo[1,2-a]pyrimido[5,4-e]pyrimidin-5(6H)-one]"
5,< 0.01,"CC1(C)CN(S(C)(=O)=O)Cc2cc(Nc3ncc4c(=O)n(-c5c(F)cccc5Cl)c5nccn5c4n3)ccc21 [Example 312, 6-(2-chloro-6-fluorophenyl)-2-{[4,4-dimethyl-2-(methylsulfonyl)-1,2,3,4-tetrahydroisoquinolin-7-yl]amino}imidazo[1,2-a]pyrimido[5,4-e]pyrimidin-5(6H)-one]"
6,< 0.01,"O=c1c2cnc(Nc3ccc(N4CC5(CCNC5)C4)cc3)nc2n2ccnc2n1-c1c(Cl)cccc1Cl [Example 313, 2-{[4-(2,6-diazaspiro[3.4]oct-2-yl)phenyl]amino}-6-(2,6-dichlorophenyl)imidazo[1,2-a]pyrimido[5,4-e]pyrimidin-5(6H)-one]"
7,< 0.01,"O=c1c2cnc(Nc3ccc(N4CC5(CCNCC5)C4)cc3)nc2n2ccnc2n1-c1c(Cl)cccc1Cl [Example 314, 2-{[4-(2,7-diazaspiro[3.5]non-2-yl)phenyl]amino}-6-(2,6-dichlorophenyl)imidazo[1,2-a]pyrimido[5,4-e]pyrimidin-5(6H)-one]"
8,< 0.01,"CN(C)[C@H]1CCN(c2ccc(Nc3ncc4c(=O)n(-c5c(Cl)cccc5Cl)c5nccn5c4n3)cc2)C1 [Example 315, 6-(2,6-dichlorophenyl)-2-({4-[(3S)-3-(dimethylamino)pyrrolidin-1-yl]phenyl}amino)imidazo[1,2-a]pyrimido[5,4-e]pyrimidin-5(6H)-one]"
9,< 0.01,"CC1(C)CN(C(=O)CO)Cc2cc(Nc3ncc4c(=O)n(-c5c(F)cccc5Cl)c5nccn5c4n3)ccc21 [Example 316, 6-(2-chloro-6-fluorophenyl)-2-{[2-(hydroxyacetyl)-4,4-dimethyl-1,2,3,4-tetrahydroisoquinolin-7-yl]amino}imidazo[1,2-a]pyrimido[5,4-e]pyrimidin-5(6H)-one]"
10,< 0.01,"CC1(C)CN(S(N)(=O)=O)Cc2cc(Nc3ncc4c(=O)n(-c5c(F)cccc5Cl)c5nccn5c4n3)ccc21 [Example 317, 7-{[6-(2-chloro-6-fluorophenyl)-5-oxo-5,6-dihydroimidazo[1,2-a]pyrimido[5,4-e]pyrimidin-2-yl]amino}-4,4-dimethyl-3,4-dihydroisoquinoline-2(1H)-sulfonamide]"
11,< 0.01,"CC(=O)N1Cc2cc(Nc3ncc4c(=O)n(-c5c(Cl)cccc5Cl)c5nccn5c4n3)ccc2C(C)(C)C1 [Example 318, 2-[(2-acetyl-4,4-dimethyl-1,2,3,4-tetrahydroisoquinolin-7-yl)amino]-6-(2,6-dichlorophenyl)imidazo[1,2-a]pyrimido[5,4-e]pyrimidin-5(6H)-one]"
12,< 0.01,"CC1(C)CN(S(C)(=O)=O)Cc2cc(Nc3ncc4c(=O)n(-c5c(Cl)cccc5Cl)c5nccn5c4n3)ccc21 [Example 319, 6-(2,6-dichlorophenyl)-2-{[4,4-dimethyl-2-(methylsulfonyl)-1,2,3,4-tetrahydroisoquinolin-7-yl]amino}imidazo[1,2-a]pyrimido[5,4-e]pyrimidin-5(6H)-one]"
13,< 0.01,"CCS(=O)(=O)N1Cc2cc(Nc3ncc4c(=O)n(-c5c(Cl)cccc5Cl)c5nccn5c4n3)ccc2C(C)(C)C1 [Example 320, 6-(2,6-dichlorophenyl)-2-{[2-(ethylsulfonyl)-4,4-dimethyl-1,2,3,4-tetrahydroisoquinolin-7-yl]amino}imidazo[1,2-a]pyrimido[5,4-e]pyrimidin-5(6H)-one]"
14,< 0.01,"CC(=O)N1CCC(Nc2ccc(Nc3ncc4c(=O)n(-c5c(Cl)cccc5Cl)c5nccn5c4n3)cc2)CC1 [Example 321, 2-({4-[(1-acetylpiperidin-4-yl)amino]phenyl}amino)-6-(2,6-dichlorophenyl)imidazo[1,2-a]pyrimido[5,4-e]pyrimidin-5(6H)-one]"
15,< 0.01,"CS(=O)(=O)N1CCC(Nc2ccc(Nc3ncc4c(=O)n(-c5c(Cl)cccc5Cl)c5nccn5c4n3)cc2)CC1 [Example 322, 6-(2,6-dichlorophenyl)-2-[(4-{[1-(methylsulfonyl)piperidin-4-yl]amino}phenyl)amino]imidazo[1,2-a]pyrimido[5,4-e]pyrimidin-5(6H)-one]"
16,< 0.01,"CN1CCC2(CC1)CCN(c1ccc(Nc3ncc4c(=O)n(-c5c(Cl)cccc5Cl)c5nccn5c4n3)cc1)CC2 [Example 323, 6-(2,6-dichlorophenyl)-2-{[4-(9-methyl-3,9-diazaspiro[5.5]undec-3-yl)phenyl]amino}imidazo[1,2-a]pyrimido[5,4-e]pyrimidin-5(6H)-one]"
17,< 0.01,"CS(=O)(=O)N1CCC2(CN(c3ccc(Nc4ncc5c(=O)n(-c6c(Cl)cccc6Cl)c6nccn6c5n4)cc3)C2)C1 [Example 324, 6-(2,6-dichlorophenyl)-2-({4-[6-(methylsulfonyl)-2,6-diazaspiro[3.4]oct-2-yl]phenyl}amino)imidazo[1,2-a]pyrimido[5,4-e]pyrimidin-5(6H)-one]"
18,< 0.01,"O=c1c2cnc(Nc3ccc(N4CCN5CCC[C@H]5C4)cc3)nc2n2ccnc2n1-c1ccccc1Cl [Example 325, 6-(2-chlorophenyl)-2-({4-[(8aS)-hexahydropyrrolo[1,2-a]pyrazin-2(1H)-yl]phenyl}amino)imidazo[1,2-a]pyrimido[5,4-e]pyrimidin-5(6H)-one]"
19,< 0.01,"CN1C[C@H]2CCN(c3ccc(Nc4ncc5c(=O)n(-c6c(Cl)cccc6Cl)c6nccn6c5n4)cc3)[C@H]2C1 [Example 326, 6-(2,6-dichlorophenyl)-2-({4-[(3aR,6aR)-5-methylhexahydropyrrolo[3,4-b]pyrrol-1(2H)-yl]phenyl}amino)imidazo[1,2-a]pyrimido[5,4-e]pyrimidin-5(6H)-one]"
20,< 0.01,"CCN(CCN(C)C)c1ccc(Nc2ncc3c(=O)n(-c4c(Cl)cccc4Cl)c4nccn4c3n2)cc1 [Example 327, 6-(2,6-dichlorophenyl)-2-[(4-{[2-(dimethylamino)ethyl](ethyl)amino}phenyl)amino]imidazo[1,2-a]pyrimido[5,4-e]pyrimidin-5(6H)-one]"
